Measurements published in patent US10214564B2, “Antimicrobial peptides derived from hepatitis B virus core protein arginine-rich domain” (priority 2013, dated 2019).
Like-named read-outs stand apart in the source and are kept apart here. Where no end group is shown, it is not given here.

What was measured:
[1] = test system: tested bacteria and fungi; format: cell-based; settings: for bacteria; serine-phosphorylated peptides
Description: (§1) The antimicrobial activities of HBc ARD peptides were tested on numerous bacterial strains from ATCC, including Pseudomonas aeruginosa Migula strain (ATCC 27853, ampicillin-resistant), Pseudomonas aeruginosa Migula strain (ATCC 9027, ampicillin-resistant), Klebsiella pneumoniae strain (ATCC 17593), Escherichia coli strain (ATCC 25922), Staphylococcus aureus subsp. strain (ATCC 25923, methicillin-resistant), Staphylococcus aureus subsp. strain (ATCC29213, methicillin-resistant), Staphylococcus aureus subsp. strain (ATCC 19636, methicillinresistant), and Candida albicans strain (ATCC 10231).
(§2) All peptides were purchased from Yao-Hong Biotechnology Inc. (Taipei, Taiwan). Vendors provided data of peptide characterizations, including HPLC and Mass. Antimicrobial activity was determined as described with some modifications as detailed below. Bacteria were grown overnight in Mueller-Hinton broth (Difeo) at 37° C., and during the mid-logarithmic phase, bacteria were diluted to 10^6 CFU (colony formation unit)/ml in phosphate buffer (10 mM sodium phosphate and 50 mM sodium chloride, pH 7.2). Peptides were serially diluted in the same buffer. Fifty microliter (μl) of bacteria was mixed with fifty μl of peptides at varying concentrations followed by incubation at 37° C. for 3 hours without shaking. […]

[2] = test system: Huh7, HepG2, Vero and HEK293 cells; experiment: Cytotoxicity, MTT assay; format: cell-based, human, monkey; settings: for effect on cell viability: 0 to 100 μM, 1 hour at 37° C.
Description: (§3) (A) Hemolytic activities of HBc147-183 and melittin were measured with 10% human red blood cells (RBC). […] (B) Huh7, HepG2, Vero and HEK293 cells were incubated with varying concentrations (0 to 100 μM) of HBc147-183 and melittin for 1 hour at 37° C. The effects on cell viability were determined by MTT assay. Melittin was used as a positive control. […] (C) Kidney cells, Vero and HEK293 were stained with CFSE and seeded at day 0. At day 1, cells were incubated with varying concentrations (0 to 100 μM) of HBc147-183 for 1 hour. Cell proliferation at day 1 and day 3 were determined by flow cytometry. […] Samples assayed in FIGS. 7A-C were measured in triplicates. (D) (D) In vivo toxicity of ARD peptide HBc147-183 was determined using three-week old male ICR mice. The mice were injected intraperitoneally with peptide (10 and 20 mg/kg of body weight).
Cytotoxicity was measured in HepG2, Huh7, HEK293, and Vero cells by MTT assay. Cells were seeded at 10^4 cells/well in a 96-well plate and serial dilutions of peptides were added into each well. PBS was used as a negative control and melittin was used as a positive control. After 1 hour of incubation, the medium were replaced by a fresh medium containing 10% MTT solution (PROMEGA™), and the plate was incubated for 4 hours in 5% CO2 at 37° C., The absorbance at the wavelength a 595 nm was measured by an ELISA reader (BIO-RAD™ model 680).

[3] = test system: S. aureus; format: cell-based, Staphylococcus aureus; settings: for Minimal bactericidal concentration: S. aureus ATCC 19636
Description: as §1
(§4) All peptides were purchased from Yao-Hong Biotechnology Inc. (Taipei, Taiwan). Vendors provided data of peptide characterizations, including HPLC and Mass. Antimicrobial activity was determined as described with some modifications as detailed below. Bacteria were grown overnight in Mueller-Hinton broth (Difeo) at 37° C., and during the mid-logarithmic phase, bacteria were diluted to 10^6 CFU (colony formation unit)/ml in phosphate buffer (10 mM sodium phosphate and 50 mM sodium chloride, pH 7.2). Peptides were serially diluted in the same buffer. Fifty microliter (μl) of bacteria was mixed with fifty μl of peptides at varying concentrations followed by incubation at 37° C. for 3 hours without shaking. At the end of incubation, bacteria were placed on Mueller-Hinton broth agar plates, and allowed growth at 37° C. overnight for measurement of minimal bactericidal concentration (MBC). […] All peptides were tested in triplicate.

[4] = test system: K. pneumoniae; format: cell-based, Klebsiella pneumoniae; settings: for Minimal bactericidal concentration: K. pneumoniae ATCC 13884
Description: as §1, §4

[5] = test system: P. aeruginosa; format: cell-based, Pseudomonas aeruginosa
Description: as §1
(§5) Clinical isolates of Pseudomonas aeruginosa (NHRI-01, NHRI-02 AND NHRI-04) were obtained through the program of Taiwan Surveillance of Antimicrobial Resistance, National Health Research Institutes, Taiwan, Acinetobacter baumannii (ATCC 17989, ATCC 17978 CR, ATCC19606, ATCC 19606 CR, TCGH 45530 AND TCGH 46709) were obtained from Tzu-Chi Buddhist General Hospital in Taiwan, and clinical isolates (TCGH 1 45530 AND TCGH 46709) were identified using the Vitek system (Biomerieux Vitek, Inc., MO, USA). A. baumannii is defined as multidrug-resistant when the organism is resistant to piperacillin, piperacillin-tazobactam, ampicillin/sulbactam, imipenem, ceftazidime, gentamicin, amikacin, tetracycline, chloramphenicol, ciprofloxacin, and cotrimoxazole. Susceptibility to colistin was determined using the broth-dilution method, in accordance with the guidelines of the Clinical and Laboratory Standards Institute.
as §2, with “buffer.” for “buffer. Fifty microliter (μl) of bacteria was mixed with fifty μl of peptides at varying concentrations followed by incubation at 37° C. for 3 hours without shaking.”

[6] = test system: E. coli; format: cell-based, Escherichia coli; settings: for Minimal bactericidal concentration: E. coli ATCC 25922
Description: as §1, §4

[7] = test system: human red blood cells; experiment: Hemolytic activity; format: cell-based; settings: 10% hRBCs, one hour of incubation
Description: as §3
The hemolytic activities of peptides were determined by hemolysis against human red blood cells (hRBCs). Human blood was obtained in EDTA-containing tube and was centrifuged at 450 g for 10 min. […] After centrifugation at 450 g for 10 min, the percentage of hemolysis was determined by measuring the absorbance at the wavelength of 405 nm of the supernatant. Blank and 100% hemolysis were determined in PBS buffer and in the presence of 1% Triton X-100, respectively.

[8] = test system: A. baumannii; format: cell-based, Acinetobacter baumannii
From the text: as §5
All peptides were purchased from Yao-Hong Biotechnology Inc. (Taipei, Taiwan). Vendors provided data of peptide characterizations, including HPLC and Mass. Antimicrobial activity was determined as described with some modifications as detailed below. […]

[9] = test system: C. albicans; format: cell-based, Candida albicans
Description: as §1, §2

[10] = test system: ICR mice; experiment: In vivo acute toxicity
Description: as §3
Three-week old male ICR mice (19 to 21 g) were purchased from BioLASCO (Taiwan) Overnight culture of bacteria in BHI broth (Difco) was subcultured in fresh BRI broth to log phase. Inoculums were diluted in BHI broth to indicated densities. To test the acute toxicity of ARD peptide in vivo, ICR male mice were inoculated intraperitoncally (i.p.) with 10 and 20 mg/kg HBc147-183 in PBS, respectively. […] After peptide injection, the number of dead mice was recorded daily for 7 days post-injection. […] Mortality was monitored daily for 7 days post-inoculation. […]

[11] = test system: Vero and HEK293 cells; experiment: CFSE cell proliferation assay; format: cell-based, human, monkey; settings: 5, 25 and 100 μM for 1 hour, day 3 vs day 1
Description: as §3
To set up CFSE cell proliferation assay, 293 cells (human kidney origin) and Vero cells (monkey kidney origin) were resuspended in PBS to a final concentration of 10^6 cells/ml before incubation with 10 μM CFSE dye (CELLTRACE™ CFSE cell proliferation kit, INVITROGEN™) at 37° C. for 10 min. To quench the staining, ice-old culture media were then added and incubated on ice for 5 min. […] Forty-eight hours later, cells were harvested and analyzed by flow cytometry (FACSCanto, BD Bioscience).

Question: `CC(C)[C@H](NC(=O)[C@@H](NC(=O)[C@@H](N)[C@@H](C)O)C(C)C)C(=O)N[C@@H](CCCNC(=N)N)C(=O)N[C@@H](CCCNC(=N)N)C(=O)N[C@@H](CCCNC(=N)N)C(=O)NCC(=O)N[C@@H](CCCNC(=N)N)C(=O)N[C@@H](COP(=O)(O)O)C(=O)N1CCC[C@H]1C(=O)N[C@@H](CCCNC(=N)N)C(=O)N[C@@H](CCCNC(=N)N)C(=O)N[C@@H](CCCNC(=N)N)C(=O)N[C@H](C(=O)N1CCC[C@H]1C(=O)N[C@@H](COP(=O)(O)O)C(=O)N1CCC[C@H]1C(=O)N[C@@H](CCCNC(=N)N)C(=O)N[C@@H](CCCNC(=N)N)C(=O)N[C@@H](CCCNC(=N)N)C(=O)N[C@@H](CCCNC(=N)N)C(=O)N[C@@H](CO)C(=O)N[C@@H](CCC(N)=O)C(=O)N[C@@H](COP(=O)(O)O)C(=O)N1CCC[C@H]1C(=O)N[C@@H](CCCNC(=N)N)C(=O)N[C@@H](CCCNC(=N)N)C(=O)N[C@@H](CCCNC(=N)N)C(=O)N[C@@H](CCCNC(=N)N)C(=O)N[C@@H](CO)C(=O)N[C@@H](CCC(N)=O)C(=O)N[C@@H](CO)C(=O)N[C@@H](CCCNC(=N)N)C(=O)N[C@@H](CCC(=O)O)C(=O)N[C@@H](CO)C(=O)N[C@@H](CCC(N)=O)C(=O)N[C@@H](CS)C(=O)O)[C@@H](C)O` [HBc155p162p170p] was tested. Which MBC [1] did it give?
Answer: Its MBC is over 32 µM.

Question: For `CC[C@H](C)[C@H](NC(=O)CN)C(=O)NCC(=O)N[C@@H](C)C(=O)N[C@H](C(=O)N[C@@H](CC(C)C)C(=O)N[C@@H](CCCCN)C(=O)N[C@H](C(=O)N[C@@H](CC(C)C)C(=O)N[C@H](C(=O)N[C@H](C(=O)NCC(=O)N[C@@H](CC(C)C)C(=O)N1CCC[C@H]1C(=O)N[C@@H](C)C(=O)N[C@@H](CC(C)C)C(=O)N[C@H](C(=O)N[C@@H](CO)C(=O)N[C@@H](Cc1c[nH]c2ccccc12)C(=O)N[C@H](C(=O)N[C@@H](CCCCN)C(=O)N[C@@H](CCCNC(=N)N)C(=O)N[C@@H](CCCCN)C(=O)N[C@@H](CCCNC(=N)N)C(=O)N[C@@H](CCC(N)=O)C(=O)N[C@@H](CCC(N)=O)C(N)=O)[C@@H](C)CC)[C@@H](C)CC)[C@@H](C)O)[C@@H](C)O)C(C)C)C(C)C` [melittin, reference compound], which “effect on cell viability” value [2] is on record?
Answer: The value was “strong toxicity”.

Question: And the viability of cells ([2]; low dose (3.125 μM), 1 hour)?
Answer: The viability of cells was “significantly decreased”.

Question: How did the Minimal bactericidal concentration [3] turn out when “TVIRRRGGARASRSPRRRTPSPRRRRSQSPRRRRSQSPSANC [wHBc ARD]” was run?
Answer: Its Minimal bactericidal concentration is 8 µM.

Question: And the Minimal bactericidal concentration [4]?
Answer: The Minimal bactericidal concentration was 2 µM.

Question: What about the Minimal bactericidal concentration ([5]; P. aeruginosa ATCC 9027) of the same compound?
Answer: Its Minimal bactericidal concentration is 2 µM.

Question: And the Minimal bactericidal concentration ([5]; P. aeruginosa ATCC 27853)?
Answer: The Minimal bactericidal concentration was 2 µM.

Question: What about the Minimal bactericidal concentration [6] of the same compound?
Answer: The Minimal bactericidal concentration was 4 µM.

Question: What does the source list for “TVVRRRGRSPRRRTPSPRRRRSQSPRRRRSQSRESQC [HBc147-183]”?
Answer: Minimal bactericidal concentration [3]: 4 µM; MBC ([3]; S. aureus, strain not given): around 4 μM; hemolysis [7]: no detectable hemolysis; MBC [8]: 0.5 to 1 µM; MBC ([8]; colistin-resistant A. baumannii): 0.5 to 1 µM; effect on cell viability [2]: no detectable effect; cytotoxicity ([2]; 100 μM, 1 hour): only a low level of cytotoxicity; MBC [9]: ~8 µM; MBC ([4]; K. pneumonia, strain not given): lower than 4 μM; Minimal bactericidal concentration [4]: 2 µM; in vivo toxicity ([10]; 20 mg/kg i.p.): no apparent in vivo toxicity; survival after peptide injection ([10]; 10 and 20 mg/kg intraperitoneally, 7 days): All mice were alive; MBC ([5]; colistin-resistant P. aeruginosa): > 16 µM; Minimal bactericidal concentration [6]: 4 µM; MBC ([6]; E. coli, strain not given): around 4 μM; effect on cell proliferation [11]: no significant effect
